Laboratory results as given in patent publication US12091385B2, “Pyridinylcyanoguanidine derivative and use thereof” (Rushi Biotech (Hangzhou) Co., Ltd, priority 2021, dated 2024).

How the values were obtained:
Format in all cases: cell-based
[1] = test system: Human multiple myeloma cell RPMI 8226; experiment: CCK-8 cell proliferation assay, RPMI 8226; conditions: RPMI8226 cells, 72 hrs with drug, CCK-8, OD 450 nm
Description: (§1) The effect of samples on the proliferation of human tumor cells in vitro was determined by CCK-8 cell proliferation assay.
(§2) The cells were assayed through a method including the following steps: • 1) The cells were digested, counted, and prepared into a cell suspension in a corresponding culture medium (Table 1) (5×10^4 cells/ml for CFPAC-1 and RPMI 8226, and 3.5×10^4 cells/ml for rest cells). The cell suspension was added to each well of a 96-well plate in 100 μl/well. • 2) Then the 96-well plate was incubated for 24 hrs in an incubator at 37° C. and 5% CO2. • 3) The drug was diluted with the culture medium to the required working concentration. 100 μl of the corresponding drug containing medium was added to each well.

[2] = test system: Human pancreatic cancer cell CFPAC-1; experiment: CCK-8 cell proliferation assay, CFPAC-1; conditions: CFPAC-1 cells, 72 hrs with drug, CCK-8, OD 450 nm
Description: as §1, §2

[3] = test system: Human lung adenocarcinoma cell A549; experiment: CCK-8 cell proliferation assay, A549; conditions: A549 cells, 72 hrs with drug, CCK-8, OD 450 nm
Description: as §1, §2

[4] = test system: Human hepatoma cell HepG2; experiment: CCK-8 cell proliferation assay, HepG2; conditions: HepG2 cells, 72 hrs with drug, CCK-8, OD 450 nm
Description: as §1, §2

[5] = test system: Human gastric cancer cell MKN45; experiment: CCK-8 cell proliferation assay, MKN45; conditions: MKN-45 cells, 72 hrs with drug, CCK-8, OD 450 nm
Description: as §1, §2

[6] = test system: Human esophageal cancer cell TE-1; experiment: CCK-8 cell proliferation assay, TE-1; conditions: TE-1 cells, 72 hrs with drug, CCK-8, OD 450 nm
Description: as §1, §2

[7] = test system: Human colon cancer cell HCT-116; experiment: CCK-8 cell proliferation assay, HCT-116; conditions: HCT116 cells, 72 hrs with drug, CCK-8, OD 450 nm
Description: as §1, §2

Compound | IC50 [1] | IC50 [2] | IC50 [3] | IC50 [4] | IC50 [5] | IC50 [6] | IC50 [7]
N#CN=C(NCCCCCN1CCN(C(=O)c2cccs2)CC1)Nc1ccncc1 [BSS-PC004, 2-cyano-1-(5-(1-(2-thienylformyl)piperazine-4-yl)pentyl)-3-(4-pyridinyl)guanidine] | 0.034 µM | 0.025 µM | 0.035 µM | 0.082 µM | 0.043 µM | 0.095 µM | 0.066 µM
N#CN=C(NCCCCCN1CCN(C(=O)c2cc3ccccc3[nH]2)CC1)Nc1ccncc1 [BSS-PC020, 2-cyano-1-(5-(1-(2-indolylformyl)piperazine-4-yl)pentyl)-3-(4-pyridinyl)guanidine] | 0.035 µM | 0.057 µM | 0.061 µM | 0.072 µM | 0.051 µM | 0.093 µM | 0.085 µM
N#CN=C(NCCCCCN1CCN(C(=O)c2ccc[nH]2)CC1)Nc1ccncc1 [BSS-PC008, 2-cyano-1-(5-(1-(2-pyrrolylformyl)piperazine-4-yl)pentyl)-3-(4-pyridinyl)guanidine] | 0.038 µM | 0.051 µM | 0.055 µM | 0.101 µM | 0.059 µM | 0.107 µM | 0.089 µM
N#CN=C(NCCCCCN1CCN(C(=O)c2sccc2F)CC1)Nc1ccncc1 [BSS-PC025, 2-cyano-1-(5-(1-(3-fluoro-2-thienylformyl)piperazine-4-yl)pentyl)-3-(4-pyridinyl)guanidine] | 0.043 µM | 0.058 µM | 0.057 µM | 0.082 µM | 0.064 µM | 0.053 µM | 0.091 µM
N#CN=C(NCCCCCCC1CCN(C(=O)c2ccccc2)C1)Nc1ccncc1 (centres unmarked) [BSS-PC054, 2-cyano-1-(6-((1-benzoyl)pyrrolidine-3-yl)hexyl)-3-(4-pyridinyl)guanidine] | 0.03 µM | 0.039 µM | 0.033 µM | 0.057 µM | 0.049 µM | 0.046 µM | 0.052 µM
